Measured values published in ChEMBL document CHEMBL1132521, “Synthesis and hypoglycemic effect of chrysin derivatives” (Bioorg Med Chem Lett, 1999).

Assays:
Mus musculus [1] = test: In vivo hypoglycemic activity after administration (40 mg/kg) in mice on day 7 was determined; assay type: functional
[2] = Ratio of hypoglycemic activity in mice was tested on day 7.; assay type: functional
Mus musculus [3] = test: In vivo hypoglycemic activity after administration (40 mg/kg) in mice on day 0 was determined; assay type: functional
Mus musculus [4] = test: Daily water consumption was determined in mouse after oral administration of 500 mg/kg; assay type: functional
Mus musculus [5] = test: Daily water consumption was determined in mouse after oral administration of 20 mg/kg; assay type: functional
Mus musculus [6] = test: Body weight was determined in mouse after oral administration of 5 mg/kg on day 7; assay type: functional
Mus musculus [7] = test: Body weight was determined in mouse after oral administration of 500 mg/kg on day 7; assay type: functional
Mus musculus [8] = test: In vivo hypoglycemic activity after administration (50 mg/kg) in mice on day 0 was determined; assay type: functional
Rattus norvegicus [9] = test: Body weight was determined in rat after oral administration of 500 mg/kg on day 0; assay type: functional
Rattus norvegicus [10] = test: Lung weight was determined in rat after oral administration of 500 mg/kg; assay type: functional; set-up: unit not given beside the values
Mus musculus [11] = test: Daily food consumption was determined in mouse after oral administration of 500 mg/kg; assay type: functional
Mus musculus [12] = test: Daily food consumption was determined in mouse after oral administration of 5 mg/kg; assay type: functional
Mus musculus [13] = test: Body weight was determined in mouse after oral administration of 500 mg/kg on day 0; assay type: functional
Mus musculus [14] = test: Abnormal symptoms was determined in mouse after oral administration of 500 mg/kg; - sign indicates abnormal symptoms in treated mouse; assay type: functional, organism-based; set-up: dose 500 mg/kg
Rattus norvegicus [15] = test: Liver weight was determined in rat after oral administration of 500 mg/kg; assay type: functional; set-up: unit not given beside the values
Mus musculus [16] = test: Daily food consumption was determined in mouse after oral administration of 100 mg/kg; assay type: functional
Mus musculus [17] = test: Abnormal symptoms was determined in mouse after oral administration of 100 mg/kg; - sign indicates abnormal symptoms in treated mouse; assay type: functional, organism-based; set-up: dose 100 mg/kg
Rattus norvegicus [18] = test: Daily food consumption was determined in rat after oral administration of 500 mg/kg; assay type: functional
Mus musculus [19] = test: Abnormal symptoms was determined in mouse after oral administration of 20 mg/kg; - sign indicates abnormal symptoms in treated mouse; assay type: functional, organism-based; set-up: dose 20 mg/kg
Mus musculus [20] = test: Abnormal symptoms was determined in mouse after oral administration of 5 mg/kg; - sign indicates abnormal symptoms in treated mouse; assay type: functional, organism-based; set-up: dose 5 mg/kg
Mus musculus [21] = test: Body weight was determined in mouse after oral administration of 20 mg/kg on day 0; assay type: functional
Rattus norvegicus [22] = test: Spleen weight was determined in rat after oral administration of 500 mg/kg; assay type: functional; set-up: unit not given beside the values
Mus musculus [23] = test: Body weight was determined in mouse after oral administration of 20 mg/kg on day 7; assay type: functional
Rattus norvegicus [24] = test: Daily water consumption was determined in rat after oral administration of 500 mg/kg; assay type: functional
Mus musculus [25] = test: In vivo hypoglycemic activity after administration (50 mg/kg) in mice on day 7 was determined; assay type: functional
Mus musculus [26] = test: Body weight was determined in mouse after oral administration of 100 mg/kg on day 7; assay type: functional
Rattus norvegicus [27] = test: Body weight was determined in rat after oral administration of 500 mg/kg on day 7; assay type: functional
Mus musculus [28] = test: Daily water consumption was determined in mouse after oral administration of 100 mg/kg; assay type: functional
Mus musculus [29] = test: Body weight was determined in mouse after oral administration of 100 mg/kg on day 0; assay type: functional
Mus musculus [30] = test: Body weight was determined in mouse after oral administration of 5 mg/kg on day 0; assay type: functional
Rattus norvegicus [31] = test: Kidney weight was determined in rat after oral administration of 500 mg/kg; assay type: functional
Rattus norvegicus [32] = test: Abnormal symptoms was determined in rat after oral administration of 500 mg/kg; - sign indicates abnormal symptoms in treated mouse; assay type: functional, organism-based; set-up: dose 500 mg/kg
Mus musculus [33] = test: Daily food consumption was determined in mouse after oral administration of 20 mg/kg; assay type: functional
Mus musculus [34] = test: Daily water consumption was determined in mouse after oral administration of 5 mg/kg; assay type: functional
Mus musculus [35] = test: In vivo hypoglycemic activity after administration (42 mg/kg) in mice on day 0 was determined; assay type: functional
Mus musculus [36] = test: In vivo hypoglycemic activity after administration (42 mg/kg) in mice on day 7 was determined; assay type: functional
Mus musculus [37] = test: In vivo hypoglycemic activity after administration (45 mg/kg) in mice on day 7 was determined; assay type: functional
Mus musculus [38] = test: In vivo hypoglycemic activity after administration (45 mg/kg) in mice on day 0 was determined; assay type: functional

`COc1cc(OC)c2c(=O)cc(-c3ccccc3)oc2c1` [CHRYSIN DIMETHYL ETHER] gave a Blood glucose (Mus musculus [1]) of 399.5 mg/dL, a Ratio [2] of 89.9 and a Blood glucose (Mus musculus [3]) of 444.4 mg/dL.

In the case of `CC(=O)Oc1ccccc1C(=O)Oc1cc(O)c2c(=O)cc(-c3ccccc3)oc2c1`, the Blood glucose (Mus musculus [1]) is reported as 500.9 mg/dL, the Ratio [2] is reported as 102.4 and the Blood glucose (Mus musculus [3]) is reported as 489.3 mg/dL.

In the case of `CCCCOc1cc(O)c2c(=O)cc(-c3ccccc3)oc2c1`, the Ratio [2] is reported as 46.3, the Water consumption (Mus musculus [4]) is reported as 82.83 mL and the Water consumption (Mus musculus [5]) is reported as 79.33 mL. For the same compound, the Body weight (Mus musculus [6]) was 32.7, the Body weight (Mus musculus [7]) was 31.3 and the Blood glucose (Mus musculus [8]) was 545.6 mg/dL. The Body weight (Rattus norvegicus [9]) was 235, the Organ weight (Rattus norvegicus [10]) was 1.22 and the Food intake (Mus musculus [11]) was 50.4. For the same compound, the Food intake (Mus musculus [12]) was 51.91, the Body weight (Mus musculus [13]) was 24.3 and the Activity (Mus musculus [14]) was “abnormal symptoms in treated mouse”. For the same compound, the Organ weight (Rattus norvegicus [15]) was 10.74, the Food intake (Mus musculus [16]) was 50.53 and the Activity (Mus musculus [17]) was “abnormal symptoms in treated mouse”. For the same compound, the Food intake (Rattus norvegicus [18]) was 113.58, the Activity (Mus musculus [19]) was “abnormal symptoms in treated mouse” and the Activity (Mus musculus [20]) was “abnormal symptoms in treated mouse”. The Body weight (Mus musculus [21]) was 23.8, the Organ weight (Rattus norvegicus [22]) was 0.71 and the Body weight (Mus musculus [23]) was 30.6. It also gave a Water consumption (Rattus norvegicus [24]) of 197.16 mL, a Blood glucose (Mus musculus [25]) of 252.4 mg/dL and a Body weight (Mus musculus [26]) of 31. The Body weight (Rattus norvegicus [27]) was 293.3, the Water consumption (Mus musculus [28]) was 80.92 mL and the Body weight (Mus musculus [29]) was 23.5. For the same compound, the Body weight (Mus musculus [30]) was 24.9, the Organ weight (Rattus norvegicus [31]) was 1.04 and the Activity (Rattus norvegicus [32]) was “abnormal symptoms in treated mouse”. For the same compound, the Food intake (Mus musculus [33]) was 52.81 and the Water consumption (Mus musculus [34]) was 82.5 mL.

`O=C(Cc1ccccc1)Oc1cc(O)c2c(=O)cc(-c3ccccc3)oc2c1` showed a Ratio [2] of 103.9, a Blood glucose (Mus musculus [8]) of 496.2 mg/dL and a Blood glucose (Mus musculus [25]) of 515.6 mg/dL.

With `CCCOc1cc(OCCC)c2c(=O)cc(-c3ccccc3)oc2c1` the Ratio [2] was 64, the Water consumption (Mus musculus [4]) was 81.75 mL and the Water consumption (Mus musculus [5]) was 80.92 mL. For the same compound, the Body weight (Mus musculus [6]) was 28.2, the Body weight (Mus musculus [7]) was 29.5 and the Body weight (Rattus norvegicus [9]) was 235.8. It also gave an Organ weight (Rattus norvegicus [10]) of 1.23, a Food intake (Mus musculus [11]) of 49.87 g and a Food intake (Mus musculus [12]) of 48.09 g. The Body weight (Mus musculus [13]) was 22.7, the Activity (Mus musculus [14]) was “abnormal symptoms in treated mouse” and the Organ weight (Rattus norvegicus [15]) was 9.64. The Food intake (Mus musculus [16]) was 49.77 g, the Activity (Mus musculus [17]) was “abnormal symptoms in treated mouse” and the Food intake (Rattus norvegicus [18]) was 115.41 g. The Activity (Mus musculus [19]) was “abnormal symptoms in treated mouse”, the Activity (Mus musculus [20]) was “abnormal symptoms in treated mouse” and the Body weight (Mus musculus [21]) was 25.3. For the same compound, the Organ weight (Rattus norvegicus [22]) was 0.61, the Body weight (Mus musculus [23]) was 31.9 and the Blood glucose (Mus musculus [35]) was 448.3 mg/dL. For the same compound, the Water consumption (Rattus norvegicus [24]) was 218.5 mL, the Body weight (Mus musculus [26]) was 32.1 and the Body weight (Rattus norvegicus [27]) was 300.8. For the same compound, the Water consumption (Mus musculus [28]) was 81.75 mL, the Body weight (Mus musculus [29]) was 25.2 and the Body weight (Mus musculus [30]) was 22.3. The Organ weight (Rattus norvegicus [31]) was 0.97, the Activity (Rattus norvegicus [32]) was “abnormal symptoms in treated mouse” and the Food intake (Mus musculus [33]) was 53.2 g. It also gave a Water consumption (Mus musculus [34]) of 80 mL and a Blood glucose (Mus musculus [36]) of 287 mg/dL.

For `O=C(/C=C/c1ccccc1)Oc1cc(O)c2c(=O)cc(-c3ccccc3)oc2c1`, the Ratio [2] was 92.6, the Blood glucose (Mus musculus [8]) was 440.6 mg/dL and the Blood glucose (Mus musculus [25]) was 407.9 mg/dL.

Work on `CCOc1cc(OCC)c2c(=O)cc(-c3ccccc3)oc2c1` yielded a Ratio [2] of 91.7, a Blood glucose (Mus musculus [37]) of 400.5 mg/dL and a Blood glucose (Mus musculus [38]) of 436.6 mg/dL.

In the case of `O=c1cc(-c2ccccc2)oc2cc(O)cc(O)c12` [CHRYSIN], the Ratio [2] is reported as 104.4, the Blood glucose (Mus musculus [37]) is reported as 503.5 mg/dL and the Blood glucose (Mus musculus [38]) is reported as 482.4 mg/dL.

Work on `COc1cc(O)c2c(=O)cc(-c3ccccc3)oc2c1` [TECHTOCHRYSIN] yielded a Ratio [2] of 87.8, a Blood glucose (Mus musculus [8]) of 455 mg/dL and a Blood glucose (Mus musculus [25]) of 399.6 mg/dL.
